{"source": "patent US20230331739A1", "about": "“INDOLO HEPTAMYL OXIME ANALOG CRYSTAL AS PARP INHIBITOR AND METHOD FOR PREPARING SAME” (CHIA TAI TIANQING PHARMACEUTICAL GROUP CO., LTD., priority 2020, published 2023)", "key": {"[1]": {"system": "human breast cancer MDA-MB-436 cell xenograft tumor", "assay": "In vivo pharmacodynamic study in subcutaneous MDA-MB-436 xenograft tumor model", "design": "species or system BALB/c nude mouse", "conditions": "for Tumor volume (day 27): Mean ± SEM; for T/C / TGI: day 27", "description": "Objective: To study the in vivo efficacy of the test compound in BALB/c nude mouse model with subcutaneous human breast cancer MDA-MB-436 cell xenograft tumor.\nMaterials: Age and body weight: female BALB/c nude mice, aged 6-8 weeks, 18-22 g. The study started after 3-7 days of adaptive feeding. The animal information card of each cage was labeled with the following information about the animals: number, sex, strain, receipt date, regime, study number, group and start of treatment. All the cages, padding and drinking water were sterilized before use. The cages, feed and drinking water were refreshed twice a week. The animals were identified with ear tags. Test samples: Nirapariband and compound 1. All the test samples were prepared with 10% DMSO+90% (20% HP-β-CD) as vehicle, and the blank control group was administered with the vehicle alone.\n1. Cell culturing: Human breast cancer MDA-MB-436 cells (ATCC, Manassas, VA, catalog No.: HTB-130) were cultured in an RPMI-1640 culture medium containing 10% fetal bovine serum and 1% Anti-anti through in vitro monolayer culture in an incubator at 37° C./5% CO2. The cells were digested with trypsin-EDTA twice a week for passaging as per conventional practice. At a cell saturation of 80%-90% and a required number, the cells were collected, counted and grafted.\n2. Tumor cell grafting (tumor grafting): 0.2 mL (1×10^7 cells) of MDA-MB-436 cells (along with matrigel in a volume ratio of 1:1) was subcutaneously grafting on the right back of each mouse, and the mice were randomly divided into groups for administration after the mean tumor volume was approximately 318 mm^3.\n3. Daily observation of animals: the animals were monitored daily for health and death, and routine examinations include observation of the effect on tumor growth and the therapy on the daily performance of the animals, such as behavioral activities, food and water intake, change in body weight, appearance, or other abnormal conditions.\n4. Tumor measurement and experimental indexes: the experimental indexes were to investigate whether the tumor growth was inhibited or delayed or the tumor was cured. Tumor diameters were measured twice weekly using a vernier caliper. The tumor volume was calculated using the following formula: V=0.5 a×b^2, where a and b represent the long diameter and short diameter of the tumor, respectively. The anti-tumor efficacy of the compound was evaluated by TGI (%) or relative tumor proliferation rate T/C (%). TGI (%) refers to the tumor growth inhibition. Calculation of TGI (%): TGI (%)=[(1−(mean tumor volume at the end of administration of a treatment group−mean tumor volume at the start of administration of the treatment group))/(mean tumor volume at the end of treatment of the solvent control group−mean tumor volume at the start of treatment of the solvent control group)]×100%. The calculation formula for relative tumor proliferation rate T/C (%) was as follows: T/C (%)=TRTV/CRTV×100% (TRTV: RTV of treatment group; CRTV: RTV of negative control group). Relative tumor volume (RTV) was calculated based on the results of tumor measurement. The calculation formula was: RTV=Vt/V0, where V0 was the mean tumor volume measured at the time of grouping and administration (i.e., do), Vt was the mean tumor volume at a certain measurement, and the data of TRTV and CRTV were obtained on the same day.\n5. Statistical analysis: including mean and standard error of mean (SEM) of tumor volume at each time point in each group. […] The experimental data were analyzed using one-way ANOVA and Games-Howell method. All the data were analyzed using SPSS 17.0. p<0.05 was defined as significance."}, "[2]": {"system": "MDA-MB-436 cells with BRCA1 mutation", "assay": "Anti-proliferation study on MDA-MB-436 cells (CellTiter-Glo)", "assay_type": "cell-based", "conditions": "Homo sapiens, MDA-MB-436, 168 h; 7 days incubation", "description": "Materials: test compounds; RPMI-1640 medium; fetal bovine serum; penicillin/streptomycin antibiotic; MDA-MB-436 cells; Envision Multimode Plate Reader (PerkinElmer). MDA-MB-436 cells were seeded in a white 96-well plate by adding 80 μL of cell suspension (containing 3000 MDA-MB-436 cells) to each well. The cell plate was incubated in a CO2 incubator overnight. The test compounds were serially 5-fold diluted to the 8th concentration with a multichannel pipette, i.e., from 2 mM to 26 nM, in duplicate. 78 μL of medium was added to an intermediate plate, and the serially diluted compound was transferred to the intermediate plate at 2 μL per well. After being mixed well, the mixture was transferred to the cell plate at 20 μL per well. […] Another cell plate was provided for reading signal values on the day of compound addition and these signal values were used as Max values in data analysis. Promega CellTiter-Glo was added to the cell plate at 25 μL per well and the luminescence signals were stabilized by incubation for 10 min at room temperature. Readings were taken using a PerkinElmer Envision Multimode Plate Reader. […]"}}}
{"smiles": "C[C@]1(c2ccc(-c3[nH]c4cc(F)cc5c4c3CONC5=O)cc2)CCCN1", "note": "[Compound 1]", "values": [{"measurement": "Tumor volume (day 27)", "setting": "[1]; 12.5 mg/kg PO QD × 28 days", "result": "377 ± 149", "unit": "mm^3"}, {"measurement": "T/C", "setting": "[1]; 12.5 mg/kg PO QD × 28 days", "result": 23.79, "unit": "%"}, {"measurement": "TGI", "setting": "[1]; 12.5 mg/kg PO QD × 28 days", "result": 95.34, "unit": "%"}, {"measurement": "Tumor volume (day 27)", "setting": "[1]; 25 mg/kg PO QD × 28 days", "result": "132 ± 32", "unit": "mm^3"}, {"measurement": "T/C", "setting": "[1]; 25 mg/kg PO QD × 28 days", "result": 8.31, "unit": "%"}, {"measurement": "TGI", "setting": "[1]; 25 mg/kg PO QD × 28 days", "result": 114.69, "unit": "%"}, {"measurement": "Tumor volume (day 27)", "setting": "[1]; 50 mg/kg PO QD × 28 days", "result": "91 ± 14", "unit": "mm^3"}, {"measurement": "T/C", "setting": "[1]; 50 mg/kg PO QD × 28 days", "result": 5.76, "unit": "%"}, {"measurement": "TGI", "setting": "[1]; 50 mg/kg PO QD × 28 days", "result": 117.86, "unit": "%"}, {"measurement": "IC50", "setting": "[2]", "result": 0.0123, "unit": "µM"}]}
